# Experimental data published in patent publication US6423347B1, “Method and product using sturgeon notochord for alleviating the symptoms of arthritis” (Abbott Laboratories, priority 1997, dated 2002).
# Like-named read-outs stand apart in the source and are kept apart here.
# What was measured:
# [1] = tested on: collagen-induced arthritis (CIA); format: in vivo
# Method: These Examples were conducted to investigate the effectiveness of sturgeon notochord in protecting mice from collagen-induced arthritis (CIA). Female DBA/1 Lac J strain mice, approximately 6-8 weeks of age, were obtained from Jackson Laboratories of Bar Harbor, Maine. Three groups of 20 mice per group were acclimated to their surroundings for 7 days. A standard mouse chow (Purina Certified Mouse Chow #5015; 11% by wt. fat; collagen-free) and water were provided for ad libitum consumption to all animals.
# Bovine serum albumin (a protein derived from non-connective tissue) and cod skin gelatin (a protein derived from another connective tissue containing Type I collagen of a fish) served as negative controls. Sturgeon notochord was obtained from farm raised sturgeon and pulverized in liquid nitrogen. The level of each test composition was equilibrated to a 300 μg protein dose based on protein (including collagen) content. Test articles were dissolved/suspended in 0.01 M acetic acid and 0.3 ml was administered per dose to each mouse with a ball tipped feeding needle.
# On Day 0, the mice were immunized at the base of the tail with 100 μg of bovine CII which was emulsified in Complete Freund's Adjuvant (CFA). On Day 7, a second booster dose of 100 μg bovine CII in CFA was administered by the same route. On Day 14, the mice were injected subcutaneously with 100 μg of lipopolysaccharide (LPS). This protocol represents a mild induction of CIA.
# Mice were inspected daily for the onset of CIA, characterized by erythema and edema. Limbs were clinically evaluated and graded on a scale of 0 to 3 (0, absence of arthritis; 1, mild swelling and erythema; 2, swelling and erythema of both tarsus and ankle; 3, ankylosis and bone deformity). […] All mice were euthanized by CO2 on Day 50.
# [2] = tested on: collagen-induced arthritis (CIA); assay: Dose response of sturgeon notochord in protecting mice from CIA; format: in vivo, DBA/1 Lac J strain mice; conditions: 0.1 mg/kg p.o.
# Method: To evaluate the dose response of sturgeon notochord in protecting mice from CIA, this experiment was conducted in a manner similar to Examples II and III. The mice were DBA/1 Lac J strain supplied by Jackson Laboratories of Bar Harbor, Maine. All mice were female and about 6-8 weeks of age. Eight groups of 10-15 mice per group were acclimated to their surroundings for 7 days. A standard mouse chow and water were provided for ad libitum consumption to all animals.
# On Days[…] −10, −7, −5 and −2 prior to immunization, mice were sensitized by sturgeon notochord. A group fed only vehicle was used as the negative control and a group fed with an effective dose of dexamethasone (0.1 mg/kg per os) was used as the positive control. Sturgeon notochord was obtained from farm raised sturgeon and pulverized in liquid nitrogen. The dose level of sturgeon notochord was equilibrated to 1, 3, 10, 30, 100 or 300 μg of collagen per dose based on the protein and collagen content. Sturgeon notochord was dissolved/suspended in 0.01 M acetic acid and 0.3 ml was administered to each mouse with a ball tipped feeding needle.
# On Day 0, the mice were immunized at the base of the tail with 100 μg of bovine CII which was emulsified in CFA. On Day 21, the mice were injected subcutaneously with 50 μg of LPS.
# Mice were inspected daily for the onset of CIA, characterized by erythema and edema. Limbs were clinically evaluated and graded on a scale of 0 to 6 as described in Example III.
# The inventors continued to observe four selected groups (vehicle control group, sturgeon notochord 0.105 mg/dose group, sturgeon notochord 1.053 mg/dose group, and dexamethasone group) until Day 79. Severity scores plotted against days post-sensitization are found in FIG. 1.
# [3] = tested on: chronic CIA induced by using human CII; assay: Chronic CIA induced by human type II collagen; format: in vivo, Female DBA/1 Lac J strain mice; conditions: 0.1 mg dexamethasone/kg BW on Days 21 and 35
# Method: Effect of Sturgeon Notochord in a Chronic Arthritis Induced by Human Type II Collagen This experiment was conducted to investigate the effectiveness of sturgeon notochord in protecting mice from chronic CIA induced by using human CII (unlike other examples in this application which used bovine CII). Female DBA/1 Lac J strain mice, approximately 6-8 weeks of age, were obtained from Jackson Laboratories of Bar Harbor, Maine. Animals were acclimated to their surroundings for 7 days. A standard mouse chow (Teklad diet) and water were provided for ad libitum consumption.
# The chronic CIA induction was achieved by immunizing each mice on Day 0 and Day 21 at the base of the tail with […] of human CII which was emulsified in CFA. Animals in the vehicle control group and Dexamethasone control group received 0.01 M acetic acid on Days −10, −7, −5, and −2 and 0.1 mg dexamethasone/kg BW on Days 21 and 35, respectively. The mice receiving sturgeon notochord were divided into three groups and they were dosed with 100 mg collagen per dose dissolved/suspended in 0.01 M acetic acid and 0.3 ml was administered. Group 1 received sturgeon notochord on Days −10, −7, −5, and −2; Group 2, on Days 7, 10, 12, and 14; Group 3, Days 28, 31, 33, and 35.
# Mice were inspected daily for the onset of CIA, characterized by erythema and edema. Limbs were clinically evaluated and graded on a scale of 0 to 6 (0, absence of arthritis; 0.5, one or more digits swollen or only the paw swollen; 1, entire paw swollen; 2, entire paw severely swollen; 3, mild deformity after inflammation subsides; 4, severe deformity; 5, mild ankylosis with partial loss of joint function in the paw; 6, severe ankylosis with total loss of joint function in the paw). […]
compound,measurement,setting,value
bovine serum albumin [BSA],median day of onset,"[1]; 300 μg protein dose oral on Days −10, −7, −5 and −2",17 days
same,# animals with arthritis,"[1]; Day 20, 300 μg protein dose oral on Days −10, −7, −5 and −2",12
same,# animals with arthritis,"[1]; Day 28, 300 μg protein dose oral on Days −10, −7, −5 and −2",12
same,# animals with arthritis,"[1]; Day 40, 300 μg protein dose oral on Days −10, −7, −5 and −2",12
same,# animals with arthritis,"[1]; Day 50, 300 μg protein dose oral on Days −10, −7, −5 and −2",14
same,% onset,"[1]; calculated based on the Day 50 data, 300 μg protein dose",78%
same,mean severity score,"[1]; scale of 0 to 3, based on Day 20, 29, 34, 43 and 50 data, 300 μg protein dose",2.05
C[C@@H]1C[C@H]2[C@@H]3CCC4=CC(=O)C=C[C@]4(C)[C@@]3(F)[C@@H](O)C[C@]2(C)[C@@]1(O)C(=O)CO [Dexamethasone],% of incidence,[2]; D26,40%
same,severity score,[2]; D26,1.0 ± 0.4
same,% of incidence,[2]; D28,50%
same,severity score,[2]; D28,1.1 ± 0.4
same,% of incidence,[2]; D35,50%
same,severity score,[2]; D35,1.1 ± 0.4
same,% incidence,[3]; D28,33%
same,severity score,[3]; D28,0.25
same,% incidence,[3]; D35,67%
same,severity score,[3]; D35,0.42
same,% incidence,[3]; D42,100%
same,severity score,[3]; D42,1.75
same,% incidence,[3]; D49,100%
same,severity score,[3]; D49,3.58
